{"source": "paper PMC7438732", "about": "“The H^+-Translocating Inorganic Pyrophosphatase From Arabidopsis thaliana Is More Sensitive to Sodium Than Its Na^+-Translocating Counterpart From Methanosarcina mazei” (Frontiers in Plant Science, 2020)", "key": {"[1]": {"molecular_target": "T1, MVP (Methanosarcina mazei, UniProt Q8PYZ8)", "T1 construct": "gene hppA1; InvGFPMVP: N-terminal signal peptide of yeast Suc2p + yEGFP + MVP; stripped microsomal membranes of S. cerevisiae YPC6; homodimer", "T1 sequence (Q8PYZ8 whole entry)": "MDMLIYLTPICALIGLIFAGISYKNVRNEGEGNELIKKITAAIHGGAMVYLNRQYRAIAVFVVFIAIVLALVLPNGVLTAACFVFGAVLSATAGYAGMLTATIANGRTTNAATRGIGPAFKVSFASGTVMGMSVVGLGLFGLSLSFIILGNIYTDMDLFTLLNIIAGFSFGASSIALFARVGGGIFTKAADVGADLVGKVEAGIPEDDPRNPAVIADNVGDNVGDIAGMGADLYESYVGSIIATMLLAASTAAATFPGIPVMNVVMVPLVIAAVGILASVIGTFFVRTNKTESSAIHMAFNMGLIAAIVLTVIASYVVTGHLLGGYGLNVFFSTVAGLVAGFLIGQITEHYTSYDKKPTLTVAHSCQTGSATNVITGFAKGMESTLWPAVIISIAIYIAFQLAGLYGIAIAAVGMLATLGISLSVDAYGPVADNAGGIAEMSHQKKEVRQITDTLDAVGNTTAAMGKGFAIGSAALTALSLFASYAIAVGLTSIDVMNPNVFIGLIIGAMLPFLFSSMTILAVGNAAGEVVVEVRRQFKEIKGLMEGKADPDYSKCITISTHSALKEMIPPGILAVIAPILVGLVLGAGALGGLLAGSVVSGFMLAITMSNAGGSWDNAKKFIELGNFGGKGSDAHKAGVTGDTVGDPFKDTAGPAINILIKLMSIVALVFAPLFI", "experiment": "colorimetric orthophosphate release; fit of MWC-derived Equation […]", "type": "biochemical", "details": "read-out: KR"}, "[2]": {"molecular_target": "T2, AVP1 (Arabidopsis thaliana, UniProt P31414)", "T2 construct": "InvGFPAVP1: N-terminal signal peptide of yeast Suc2p + yEGFP + AVP1; stripped microsomal membranes of S. cerevisiae YPC6; homodimer", "T2 sequence (P31414 1-770)": "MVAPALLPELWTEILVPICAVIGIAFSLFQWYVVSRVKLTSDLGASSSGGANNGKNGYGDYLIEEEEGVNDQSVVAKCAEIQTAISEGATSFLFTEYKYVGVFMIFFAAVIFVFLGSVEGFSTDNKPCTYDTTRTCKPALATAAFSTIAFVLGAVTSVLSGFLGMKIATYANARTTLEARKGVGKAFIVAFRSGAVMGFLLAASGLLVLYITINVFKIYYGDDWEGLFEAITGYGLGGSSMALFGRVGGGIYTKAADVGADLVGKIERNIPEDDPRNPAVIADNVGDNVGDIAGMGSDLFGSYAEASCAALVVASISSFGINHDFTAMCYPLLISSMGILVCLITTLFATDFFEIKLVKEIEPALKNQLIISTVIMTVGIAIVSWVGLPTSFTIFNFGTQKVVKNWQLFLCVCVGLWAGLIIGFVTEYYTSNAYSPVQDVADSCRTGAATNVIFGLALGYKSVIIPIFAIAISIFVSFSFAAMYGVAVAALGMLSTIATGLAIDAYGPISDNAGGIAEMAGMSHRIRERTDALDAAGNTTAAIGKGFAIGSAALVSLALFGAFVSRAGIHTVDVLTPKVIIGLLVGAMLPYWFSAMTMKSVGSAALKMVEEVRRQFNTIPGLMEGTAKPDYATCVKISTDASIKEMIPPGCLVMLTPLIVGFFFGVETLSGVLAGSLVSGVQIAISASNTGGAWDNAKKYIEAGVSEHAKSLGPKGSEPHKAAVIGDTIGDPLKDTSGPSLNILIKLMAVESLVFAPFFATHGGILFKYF", "experiment": "colorimetric orthophosphate release; fit of MWC-derived Equation […]", "type": "biochemical", "details": "read-out: KR"}}}
{"smiles": "O=P(O)(O)OP(=O)(O)O", "note": "[Mg2PPi]", "values": [{"measurement": "Kd", "setting": "[1]", "result": "62 ± 8", "unit": "µM"}, {"measurement": "Kd", "setting": "[2]", "result": "84 ± 9", "unit": "µM"}]}
